Source: US20260285850A1, “SUBSTITUTED OXAZOLIDINONES AND IMIDAZOLINONES AS HERBICIDES” (FMC CORPORATION, priority 2023, published 2026)

What was measured:
Format in all cases: in vivo
kochia (Bassia scoparia) [1] = test: Test A preemergence soil spray, visual injury rating 0-100; settings: 10 days, 0 = no effect, 100 = complete control
Procedure, shortened: (§1)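 Plants were grown in a loam soil-sand blend and treated with test chemical in a non-phytotoxic solvent mixture containing surfactant, either sprayed on soil preemergence or applied postemergence to 2-10 cm plants. After 10 days in a greenhouse, injury was scored visually against untreated controls, 0 meaning no effect and 100 complete control.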

[2] = tested on: palmer (palmer amaranth, palmer pigweed, Amaranthus palmeri); test: as above; settings: 10 days, 0 = no effect, 100 = complete control
Procedure, shortened: as §1

[3] = tested on: oat, wild (wild oat, Avena fatua); test: as above; settings: 10 days, 0 = no effect, 100 = complete control
Procedure, shortened: as §1

[4] = tested on: ryegrass, Italian (italian ryegrass, Lolium multiflorum); test: as above; settings: 10 days, 0 = no effect, 100 = complete control
Procedure, shortened: as §1

[5] = tested on: ragweed (common ragweed, Ambrosia artemisiifolia); test: as above; settings: 10 days, 0 = no effect, 100 = complete control
Procedure, shortened: as §1

corn (Zea mays) [6] = test: as above; settings: 10 days, 0 = no effect, 100 = complete control
Procedure, shortened: as §1

[7] = tested on: green foxtail (Setaria viridis); test: as above; settings: 10 days, 0 = no effect, 100 = complete control
Procedure, shortened: as §1

soybean (Glycine max) [8] = test: as above; settings: 10 days, 0 = no effect, 100 = complete control
Procedure, shortened: as §1

[9] = tested on: barnyardgrass (Echinochloa crus-galli); test: as above; settings: 10 days, 0 = no effect, 100 = complete control
Procedure, shortened: as §1

[10] = tested on: wheat (Triticum aestivum); test: as above; settings: 10 days, 0 = no effect, 100 = complete control
Procedure, shortened: as §1

[11] = tested on: blackgrass (Alopecurus myosuroides); test: as above; settings: 10 days, 0 = no effect, 100 = complete control
Procedure, shortened: as §1

[12] = tested on: horseweed (Erigeron canadensis); test: Test A postemergence application, visual injury rating 0-100; settings: 10 days
Procedure, shortened: as §1

kochia (Bassia scoparia) [13] = test: as above; settings: 10 days
Procedure, shortened: as §1

[14] = tested on: palmer (palmer amaranth, palmer pigweed, Amaranthus palmeri); test: as above; settings: 10 days
Procedure, shortened: as §1

[15] = tested on: galium (catchweed bedstraw, Galium aparine); test: as above; settings: 10 days
Procedure, shortened: as §1

[16] = tested on: oat, wild (wild oat, Avena fatua); test: as above; settings: 10 days
Procedure, shortened: as §1

[17] = tested on: ryegrass, Italian (italian ryegrass, Lolium multiflorum); test: as above; settings: 10 days
Procedure, shortened: as §1

[18] = tested on: ragweed (common ragweed, Ambrosia artemisiifolia); test: as above; settings: 10 days
Procedure, shortened: as §1

corn (Zea mays) [19] = test: as above; settings: 10 days
Procedure, shortened: as §1

[20] = tested on: green foxtail (Setaria viridis); test: as above; settings: 10 days
Procedure, shortened: as §1

soybean (Glycine max) [21] = test: as above; settings: 10 days
Procedure, shortened: as §1

[22] = tested on: barnyardgrass (Echinochloa crus-galli); test: as above; settings: 10 days
Procedure, shortened: as §1

[23] = tested on: wheat (Triticum aestivum); test: as above; settings: 10 days
Procedure, shortened: as §1

[24] = tested on: blackgrass (Alopecurus myosuroides); test: as above; settings: 10 days
Procedure, shortened: as §1

[25] = tested on: barnyardgrass (Echinochloa crusgalli); test: Test B flooded paddy test, visual plant response rating 0-100; settings: 250 g ai/ha, Flood, applied to paddy water, evaluated after 13 days
Procedure, shortened: (§2)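 Greenhouse, 13 d. Seedlings at 2-leaf stage, pots flooded to 3 cm, compound delivered into floodwater, water level held constant. Evaluated visually relative to controls.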

rice (Oryza sativa) = test: as above; settings: 250 g ai/ha, Flood, applied to paddy water, evaluated after 13 days
Procedure, shortened: as §2

[26] = tested on: sedge, umbrella (small-flower umbrella sedge, Cyperus difformis); test: as above; settings: 250 g ai/ha, Flood, applied to paddy water, evaluated after 13 days
Procedure, shortened: as §2

[27] = tested on: ducksalad (Heteranthera limosa); test: as above; settings: 250 g ai/ha, Flood, applied to paddy water, evaluated after 13 days
Procedure, shortened: as §2

[28] = 31 g ai/ha, postemergence, 0 = no effect, 100 = complete control
[29] = Postemergence, 125 g ai/ha, 0 is no effect, 100 is complete control

CC1(C(=O)NC2CC=C(C(=O)OCC(F)(F)F)C2)CN(c2cc(F)cc(F)c2)C(=O)O1 (stereo not shown) [Compound 1]
80: Oat, Wild plant response rating (0 to 100 scale) ([3]; 125 g ai/ha) | Ryegrass, Italian plant response rating (0-100) ([4]; 31 g ai/ha) | Horseweed plant response rating (0 to 100 scale) [12, 29] | Ryegrass, Italian plant response rating (0-100) [17, 28] | Ryegrass, Italian plant response rating (0 to 100 scale) [17, 29] | Soybean plant response rating (0-100) (soybean (Glycine max) [21]; [28]) | Plant response rating, Rice (0 to 100 scale, 0 is no effect and 100 is complete control) (rice (Oryza sativa))
20: Ragweed plant response rating (0-100) ([5]; 31 g ai/ha)
70: Soybean plant response rating (0-100) (soybean (Glycine max) [8]; 31 g ai/ha) | Blackgrass plant response rating (0 to 100 scale) ([11]; 125 g ai/ha) | Horseweed plant response rating (0-100) [12, 28] | Kochia plant response rating (0-100) (kochia (Bassia scoparia) [13]; [28]) | Ragweed plant response rating (0 to 100 scale) [18, 29]
90: Amaranth, Palmer plant response rating (0-100) ([2]; 31 g ai/ha) | Ryegrass, Italian plant response rating (0 to 100 scale) ([4]; 125 g ai/ha) | Ragweed plant response rating (0 to 100 scale) ([5]; 125 g ai/ha) | Corn plant response rating (0 to 100 scale) (corn (Zea mays) [6]; 125 g ai/ha) | Soybean plant response rating (0 to 100 scale) (soybean (Glycine max) [8]; 125 g ai/ha) | Barnyardgrass plant response rating (0-100) ([9]; 31 g ai/ha) | Wheat plant response rating (0-100) ([10]; 31 g ai/ha) | Kochia plant response rating (0 to 100 scale) (kochia (Bassia scoparia) [13]; [29]) | Amaranth, Palmer plant response rating (0-100) [14, 28] | Amaranth, Palmer / Pigweed, Palmer plant response rating (0 to 100 scale) [14, 29] | Galium plant response rating (0-100) [15, 28] | Galium plant response rating (0 to 100 scale) [15, 29] | Oat, Wild plant response rating (0-100) [16, 28] | Foxtail, Green plant response rating (0-100) [20, 28] | Foxtail, Green plant response rating (0 to 100 scale) [20, 29] | Soybean plant response rating (0 to 100 scale) (soybean (Glycine max) [21]; [29]) | Wheat plant response rating (0-100) [23, 28] | Wheat plant response rating (0 to 100 scale) [23, 29] | Blackgrass plant response rating (0-100) [24, 28]
60: Oat, Wild plant response rating (0-100) ([3]; 31 g ai/ha) | Corn plant response rating (0-100) (corn (Zea mays) [6]; 31 g ai/ha) | Blackgrass plant response rating (0-100) ([11]; 31 g ai/ha) | Ragweed plant response rating (0-100) [18, 28] | Plant response rating, Ducksalad (0 to 100 scale, 0 is no effect and 100 is complete control) [27]
100: Kochia plant response rating (0 to 100 scale) (kochia (Bassia scoparia) [1]; 125 g ai/ha) | Amaranth, Palmer plant response rating (0 to 100 scale) ([2]; 125 g ai/ha) | Foxtail, Green plant response rating (0-100) ([7]; 31 g ai/ha) | Foxtail, Green plant response rating (0 to 100 scale) ([7]; 125 g ai/ha) | Barnyardgrass plant response rating (0 to 100 scale) ([9]; 125 g ai/ha) | Wheat plant response rating (0 to 100 scale) ([10]; 125 g ai/ha) | Oat, Wild plant response rating (0 to 100 scale) [16, 29] | Corn plant response rating (0-100) (corn (Zea mays) [19]; [28]) | Corn plant response rating (0 to 100 scale) (corn (Zea mays) [19]; [29]) | Barnyardgrass plant response rating (0-100) [22, 28] | Barnyardgrass plant response rating (0 to 100 scale) [22, 29] | Blackgrass plant response rating (0 to 100 scale) [24, 29]
95: Plant response rating, Barnyardgrass (0 to 100 scale, 0 is no effect and 100 is complete control) [25] | Plant response rating, Sedge, Umbrella (0 to 100 scale, 0 is no effect and 100 is complete control) [26]
50: Kochia plant response rating (0-100) (kochia (Bassia scoparia) [1]; 31 g ai/ha)
